Reference: paper PMC3556473, “Absorption, metabolism and excretion of [^14C]pomalidomide in humans following oral administration” (Cancer Chemotherapy and Pharmacology, 2012)
Where “and” joins values, the source holds several entries; their conditions need not be identical. Identical values can stand only once. Like-named read-outs stand apart in the source and are kept apart here.

Experiments:
[1] = Plasma pharmacokinetics of pomalidomide and its enantiomers (chiral LC–MS/MS) after a single oral 2 mg dose of [14C]pomalidomide; assay type: in vivo, human; details: for C max: healthy male subjects; for C max / AUC0−t / AUC0−∞ / t ½: mean ± SD (n = 8); for T max: median (min–max)
Source text: This was an open-label, in-patient, single-dose study in eight non-smoking healthy male adult volunteers conducted in accordance with Good Clinical Practices (GCP) and in compliance with the Declaration of Helsinki. The protocol and consent form were reviewed and approved by the appropriate institutional review board, and all study participants gave written informed consent, before initiation of any study-related procedure. Male subjects were eligible based on standard inclusion/exclusion criteria and were excluded if they had exposure to excess radiation or participated in a study involving radioisotopes within the previous 12 months. Subjects entered the study center on the day prior to dosing and remained at the center for up to 15 days following dosing or until the total radioactivity recovered in excreta was ≥90 % or the radioactivity recovered in excreta per day on three consecutive days was ≤1 % of the administered radioactive dose.
Each subject was administered a single oral suspension of 2 mg (100 μCi) of [^14C]pomalidomide in seltzer water (75 mL) followed by administration of an additional 140 mL of distilled water. Subjects were fasted for 8 h prior to and 4 h following dose administration. The residual radioactivity in the dosing vials was determined, and for six of the eight subjects (subjects 1–4, 6 and 8), the administered dose (1.93–2.02 mg) was close to the target dose of 2 mg. For subjects 5 and 7, a significant amount of radioactivity remained in the dose vial, resulting in administered doses of 1.59 and 1.51 mg, respectively. Calculations for percent of dose recovered in excreta were based on the actual administered doses.
Blood was collected into pre-chilled K3EDTA tubes at pre-dose, 0.5, 1, 1.5, 2, 2.5, 3, 4, 6, 8, 10, 12, 24, 48, 72, 120 and 168 h following dose administration. Blood for radioactivity counting was transferred to a clean tube and stored at or below 4 °C until analyzed. Plasma was harvested by centrifugation from the remaining blood. A plasma sample for radioactivity counting was transferred to a fresh tube. Three plasma aliquots were transferred to tubes containing citric acid for metabolite profiling and for determination of pomalidomide enantiomer concentrations in plasma. Urine was collected pre-dose, 0–6, 6-12, 12–24 and every 24 h thereafter up to 216 h (9 days) following dose administration and were stabilized with one volume of pH 1.5 Sorensen’s citrate buffer (25 mM sodium citrate buffer adjusted to pH 1.5). During the 12- to 24-h collection interval for subject 4, approximately 550 mL of urine was inadvertently poured into the wrong collection urinal and the sample was lost. […] Individual fecal samples were collected pre-dose and for up to 9 days following dose administration, and homogenized using approximately three volumes by weight of pH 1.5 Sorensen’s citrate buffer. All urine, fecal homogenates and plasma samples were stored at or below −20 °C until analyzed.
Plasma concentrations of each pomalidomide enantiomer were determined using a chiral LC–MS/MS assay. The pomalidomide enantiomers and ^13C-labeled pomalidomide (internal standard; IS) were extracted from plasma (stabilized with citric acid) using liquid–liquid extraction with methyl tertiary butyl ether. After transfer to a new tube, the solvent was evaporated, and the samples were reconstituted and injected for LC–MS/MS analysis using a Chiral AGP (50 × 3.0 mm, 5 μm; Chrom Tech, Inc., Apple Valley, MN) analytical column. Positive ions were measured in the multiple reaction monitoring (MRM) mode using a Sciex API-4000 tandem mass spectrometer equipped with a Turbo Ion Spray source. For the QC samples, the accuracy ranged from 91.0 to 106.9 %. For study samples, the amount of [^14C]-labeled material was accounted for when calculating the concentration of enantiomers in plasma using an appropriate correction factor. […]

[2] = Plasma pharmacokinetics of pomalidomide and circulating metabolites by radiochromatography (metabolite profiling); assay type: in vivo, human; parameters: AUC0–24 / AUC0−∞: concentration or dose not given beside the values; details: for Plasma (% AUC relative to TRA): AUC0–24 (unchanged drug or metabolite)/AUC0–24 (TRA) * 100 %; for AUC/AUCTRA: plasma exposure relative to total radioactivity
Method: Individual plasma samples collected from all subjects at 1, 2.5, 4, 6, 10, 12 and 24 h post-dose were analyzed for metabolite profiling. Samples were extracted with acetonitrile, the supernatant was removed, and the pellet was washed with 0.1 % formic acid in water and extracted again with acetonitrile. The combined supernatants were adjusted to 15 or 25 mL by adding acetonitrile then evaporated to dryness under a stream of nitrogen. The residues were re-suspended in 0.1 % formic acid in water, assayed for extraction recovery and analyzed for metabolite profiling. A control plasma sample spiked with [^14C]pomalidomide was extracted in a similar manner to determine the extraction efficiency and stability of [^14C]pomalidomide.
(§1) HPLC analysis for metabolite profiling (HPLC Method 1) was performed using a Waters 2695 Alliance Separation Module (Waters Corp., Milford, MA) with the autosampler set to 4 °C. [^14C]Pomalidomide and metabolites were separated using an ACE C18 column (150 × 4.6 mm, 3 μm; Advanced Chromatography Technologies, Aberdeen, Scotland) equipped with an ACE C18 guard column (10 × 3 mm, 3 μm). The mobile phases used were 25 mM ammonium acetate in water: pH 5.5 with formic acid (mobile phase A) and methanol (mobile phase B). The column temperature was 30 °C, and the flow rate was 0.7 mL/min. The linear gradient was delivered as follows: 0–2 min 100 % A; 2–38 min to 64 % A; 38–44 min to 0 % A; 44–48 min hold at 0 % A; return to initial conditions over 2 min.
(§2) Radioactivity profiles for plasma and excreta were determined by collecting the column eluate into 96-well Deepwell LumaPlates™ at a rate of 0.25 min/fraction. The plates were dried and the radioactivity in each well determined using a PerkinElmer TopCount® NXT™ Microplate Scintillation Counter. HPLC radiochromatograms were reconstructed using LC-ARC data handling software.
For pomalidomide and metabolite concentrations in plasma based on metabolite profiling data, pharmacokinetic data were generated by non-compartmental analysis of plasma versus time profiles using WinNonlin (version 4.1, Enterprise Edition).

[3] = Metabolite profiling of urine and feces (% of dose excreted); assay type: in vivo, human; details: radiochromatography; for % of dose excreted, Urine: pooled urine 0–72 h
Method: For each subject, urine samples were pooled using an equal percentage by volume of the 0–6, 6–12, 12–24, 24–48 and 48–72 h samples. Pools of the 0–6, 6–12, 12–24, 24–48 and 48-72 h collections were also prepared across subjects and analyzed for metabolite profiling. Samples were mixed and centrifuged prior to the supernatants being transferred to fresh tubes for metabolite profiling analysis.
For each subject, fecal homogenates for metabolite profiling were pooled using an equal percentage by weight of the 0–24, 24–48, 48–72 and 72–96 h samples. Pools of the 0–24, 24-48, 48–72 and 72–96 h collections were also prepared across subjects and analyzed for metabolite profiling. An aliquot of each pool was extracted with acetonitrile; samples were mixed and centrifuged. The supernatant was removed and the pellets re-suspended with 0.1 % formic acid and extracted with acetonitrile. The combined supernatants were evaporated to dryness under a stream of nitrogen and the residue re-suspended in methanol:0.1 % formic acid in water (1:1). Samples were assayed for extraction recovery prior to metabolite profiling. A control fecal homogenate spiked with [^14C]pomalidomide was extracted in a similar manner to determine the extraction efficiency and stability of [^14C]pomalidomide.
as §1, §2

[4] = cited from earlier work
[5] = tested on: PBMC TNF-α production; assay: Inhibition of TNF-α production by LPS-stimulated human PBMC (1-day culture); assay type: cell-based; details: 24 h
Method: (§3) Metabolites and hydrolysis products of pomalidomide were tested for pharmacological activity in the following three assay systems: (1) inhibition of MM cell proliferation, (2) enhancement of primary human T cell IL-2 production and (3) inhibition of TNF-α production by lipopolysaccharide (LPS)-stimulated human peripheral blood mononuclear cells (PBMC). For all three assay types, compounds were dissolved in 100 % dimethyl sulfoxide (DMSO) and diluted into complete cell culture medium, consisting of Roswell Park Memorial Institute (RPMI)-1640 plus penicillin, streptomycin and L-glutamine (Mediatech, Manassas, VA). The MM cell proliferation cell culture medium contained 10 % fetal bovine serum, while the primary human cell cultures contained 10 % human AB serum (Invitrogen, Brown Deer, WI). The final DMSO concentration in the cell culture media was 0.25 %.
(§4) The human MM cell line OPM-2 was obtained from DSMZ (Braunschweig, Germany), and human MM cell lines U266 B1 and NCI-H929 were obtained from ATCC (Manassas, VA). Inhibition of MM cell proliferation was assessed by the [^3H]-thymidine incorporation assay in a 3-day culture in the presence of compounds in complete medium, as previously described. Primary human T cells were isolated from PBMC by negative selection using the RosetteSep T Cell Enrichment Cocktail (STEMCELL Technologies, Tukwila, WA) according to the manufacturer’s procedures. Costimulation of T cell IL-2 production was measured in a 2-day culture of primary human T cells isolated from healthy donors stimulated with anti-CD3 antibody in the presence of compounds, as previously described. Inhibition of TNF-α production by LPS-stimulated human PBMC was measured in a 1-day culture in the presence of compound, as previously described.

[6] = tested on: OPM-2 MM cell; assay: Inhibition of MM cell proliferation ([3H]-thymidine incorporation, 3-day culture); assay type: cell-based; details: Homo sapiens
Method: as §3, §4

[7] = tested on: H929 MM cell; assay: as above; assay type: cell-based; details: Homo sapiens, NCI-H929
Method: as §3, §4

[8] = tested on: U266 MM cell; assay: as above; assay type: cell-based; details: Homo sapiens, U-266
Method: as §3, §4

[9] = tested on: T cell IL-2 production; assay: Enhancement of primary human T cell IL-2 production (anti-CD3 stimulated, 2-day culture); assay type: cell-based; details: 48 h, anti-CD3 stimulated primary human T cells
Method: as §3, §4

[10] = plasma, radiochromatography, geometric mean (%CV)
[11] = plasma, radiochromatography, median and range
[12] = lenalidomide, listed as lenalidomide

Nc1cccc2c1C(=O)N([C@@H]1CCC(=O)NC1=O)C2=O (single isomer, unassigned) [R-enantiomer]
C max [1]: 6.36 ± 2.08 ng/mL | AUC0−t [1]: 67.7 ± 33.8 ng·h/mL | AUC0−∞ [1]: 95.1 ± 46.1 ng·h/mL | t ½ [1]: 9.5 ± 3.2 h | T max [1]: 3.0 (2.5–6.0) h

Nc1cccc2c1C(=O)N([C@H]1CCC(=O)NC1=O)C2=O (single isomer, unassigned) [S-enantiomer]
C max [1]: 6.78 ± 1.99 ng/mL | AUC0−t [1]: 66.9 ± 34.1 ng·h/mL | AUC0−∞ [1]: 96.4 ± 58.2 ng·h/mL | t ½ [1]: 8.8 ± 4.5 h | T max [1]: 3.0 (1.0–6.0) h

Nc1c(O[C@@H]2O[C@H](C(=O)O)[C@@H](O)[C@H](O)[C@H]2O)ccc2c1C(=O)N(C1CCC(=O)NC1=O)C2=O (stereo partly drawn) [Metabolite M12]
Plasma (% AUC relative to TRA) [2]: 4.6% | AUC/AUCTRA [2]: 4.59% | AUC0–24 [2, 10]: 8.90 (20.9) ngEq*h/mL | AUC0−∞ [2, 10]: 10.1 (30.2) ngEq*h/mL | C max [2, 10]: 0.664 (23.5) ngEq/mL | t ½ [2, 10]: 9.06 (18.7) h | T max [2, 11]: 2.5 (1.0–6.0) h | % of dose excreted, Urine [3]: 17% and 17.1%

Nc1cccc2c1CN(C1CCC(=O)NC1=O)C2=O (stereo not drawn) [Lenalidomide, lenalidomide]
Percent dose excreted in human urine, Metabolites (oxidative and conjugative) ([4]; lenalidomide): 5.3% | Percent dose excreted in human urine, Parent ([4]; lenalidomide): 81.7% | Percent dose excreted in human urine, Total ([4]; lenalidomide): 90.3% | Percent dose excreted in human urine, Parent [4, 12]: > 80% | Percent dose excreted in human urine, Total [4, 12]: > 90%

NC(=O)C(CCC(=O)O)N1C(=O)c2cccc(N)c2C1=O (stereo not drawn) [Metabolite M10]
IC50 [5]: > 10 µM | % of dose excreted, Feces ([3]; pooled feces 0–96 h): 0.3% | % of dose excreted, Urine [3]: 1.5% | IC50 [6]: > 1 µM | IC50 [7]: > 1 µM | IC50 [8]: > 1 µM | EC50 [9]: 0.72 µM

Nc1c(O[C@@H]2O[C@H](C(=O)O)[C@@H](O)[C@H](O)[C@H]2O)ccc2c1C(=O)N(C1CCC(=O)NC1=O)C2=O (stereo partly drawn) [Metabolite M13]
Plasma (% AUC relative to TRA) [2]: 2.0% | AUC/AUCTRA [2]: 1.99% | AUC0–24 [2, 10]: 3.86 (54.0) ngEq*h/mL | AUC0−∞ [2, 10]: 5.99 (48.9) ngEq*h/mL | C max [2, 10]: 0.362 (31.7) ngEq/mL | t ½ [2, 10]: 9.97 (43.6) h | T max [2, 11]: 3.25 (1.0–6.0) h | % of dose excreted, Urine [3]: 12% and 12.4%

Nc1cccc(C(=O)O)c1C(=O)O [Metabolite M2, 3-Aminophthalic acid]
Plasma (% AUC relative to TRA) [2]: 1.7% | Tmax ([2]; human, oral, 2 mg, plasma, radiochromatography, median and range): 6 h | half-life ([2]; male, human, plasma, oral, 2 mg, plasma, radiochromatography, geometric mean (%CV), read-out: t ½ (converted)): 13.2 h | AUC/AUCTRA [2]: 1.71% | AUC0–24 [2, 10]: 3.31 (28.4) ngEq*h/mL | AUC0−∞ [2, 10]: 4.27 (12.7) ngEq*h/mL | C max [2, 10]: 0.238 (36.3) ngEq/mL | % of dose excreted, Urine [3]: 1.4%

O=C1CCC(N2C(=O)c3ccccc3C2=O)C(=O)N1 (stereo not drawn) [Thalidomide, thalidomide]
Percent dose excreted in human urine, Hydrolysis products ([4]; thalidomide): 87.2% | Percent dose excreted in human urine, Metabolites (oxidative and conjugative) ([4]; thalidomide): Trace | Percent dose excreted in human urine, Parent ([4]; thalidomide): 1.8% | Percent dose excreted in human urine, Total ([4]; thalidomide): 91.9% | Percent dose excreted in human urine, Total ([4]; thalidomide, listed as thalidomide): > 90%
